Data from patent US8802597B2, “Herbicidal pyrimidines” (E I du Pont de Nemours and Company, priority 2003, dated 2014).
Like-named read-outs stand apart in the source and are kept apart here.

What was measured:
Format in all cases: in vivo
[1] = tested on: chickweed (Stellaria media); assay: Test C postemergence; details: Stellaria media, post-emergence
How it was run: (§1)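 Greenhouse pot test: seeds treated preemergence, or plants at 2–18 cm (1- to 4-leaf stage) treated postemergence, with compound in non-phytotoxic solvent plus surfactant. Visual rating versus untreated controls after 12–14 days, scale 0 (no effect) to 100 (complete control); dash means not tested.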

[2] = tested on: lambsquarters (Chenopodium album); assay: Test C pre/postemergence; details: Chenopodium album; for pest or weed control at 31 g/ha: 31 g ai/ha; for pest or weed control at 62 g/ha: 62 g ai/ha; for pest or weed control at 125 g/ha: 125 g ai/ha; for pest or weed control at 250 g/ha: 250 g ai/ha
How it was run: as §1

[3] = tested on: velvetleaf (Abutilon theophrasti); assay: Test C pre/postemergence; details: Abutilon theophrasti; for pest or weed control at 31 g/ha: 31 g ai/ha; for pest or weed control at 62 g/ha: 62 g ai/ha; for pest or weed control at 125 g/ha: 125 g ai/ha; for pest or weed control at 250 g/ha: 250 g ai/ha
How it was run: as §1

[4] = tested on: goosegrass (Eleusine indica); assay: Test C pre/postemergence; details: Eleusine indica; for pest or weed control at 31 g/ha: 31 g ai/ha; for pest or weed control at 62 g/ha: 62 g ai/ha; for pest or weed control at 125 g/ha: 125 g ai/ha; for pest or weed control at 250 g/ha: 250 g ai/ha
How it was run: as §1

[5] = tested on: giant foxtail (Setaria faberii); assay: Test C pre/postemergence; details: Setaria faberi; for pest or weed control at 125 g/ha: 125 g ai/ha; for pest or weed control at 31 g/ha: 31 g ai/ha; for pest or weed control at 62 g/ha: 62 g ai/ha; for pest or weed control at 250 g/ha: 250 g ai/ha
How it was run: as §1

[6] = tested on: redroot pigweed (Amaranthus retroflexus); assay: Test A pre/postemergence; details: Amaranthus retroflexus, 240 h, read-out: Plant response rating, Pigweed; for pest or weed control at 125 g/ha: 125 g ai/ha; for pest or weed control at 500 g/ha: 500 g ai/ha
How it was run: (§2)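 Greenhouse herbicide test with preemergence directed soil spray and postemergence foliar spray at the 1- to 2-leaf stage; visual control rating 0–100 versus untreated at ~10 days.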

[7] = tested on: crabgrass (Digitaria sanguinalis); assay: Test A pre/postemergence; details: Digitaria sanguinalis, 240 h, read-out: Plant response rating, Crabgrass; for pest or weed control at 125 g/ha: 125 g ai/ha; for pest or weed control at 500 g/ha: 500 g ai/ha
How it was run: as §2

[8] = tested on: velvetleaf (Abutilon theophrasti); assay: Test A pre/postemergence; details: Abutilon theophrasti, 240 h, read-out: Plant response rating, Velvetleaf; for pest or weed control at 125 g/ha: 125 g ai/ha; for pest or weed control at 500 g/ha: 500 g ai/ha
How it was run: as §2

[9] = tested on: giant foxtail (Setaria faberi); assay: Test A pre/postemergence; details: Setaria faberi, 240 h, read-out: Plant response rating, Foxtail, Giant; for pest or weed control at 125 g/ha: 125 g ai/ha; for pest or weed control at 500 g/ha: 500 g ai/ha
How it was run: as §2

[10] = tested on: barnyardgrass (Echinochloa crus-galli); assay: Test A pre/postemergence; details: Echinochloa crus-galli, 240 h, read-out: Plant response rating, Barnyardgrass; for pest or weed control at 125 g/ha: 125 g ai/ha; for pest or weed control at 500 g/ha: 500 g ai/ha
How it was run: as §2

[11] = tested on: morningglory (Ipomoea spp.); assay: Test A pre/postemergence; details: Ipomoea, 240 h, read-out: Plant response rating, Morningglory; for pest or weed control at 125 g/ha: 125 g ai/ha; for pest or weed control at 500 g/ha: 500 g ai/ha
How it was run: as §2

[12] = post-emergence, Postemergence, scale 0 to 100 (0 no effect, 100 complete control), read-out: Lambsquarters plant response rating
[13] = pre-emergence, Preemergence, scale 0 to 100, 0 no effect, 100 complete control, read-out: Plant response rating, Lambsquarters
[14] = pre-emergence, Preemergence, scale 0 to 100, read-out: Plant response rating, Lambsquarters
[15] = post-emergence, Postemergence, scale 0 to 100 (0 no effect, 100 complete control), read-out: Velvetleaf plant response rating
[16] = pre-emergence, Preemergence, scale 0 to 100, 0 no effect, 100 complete control, read-out: Plant response rating, Velvetleaf
[17] = pre-emergence, Preemergence, scale 0 to 100, read-out: Plant response rating, Velvetleaf
[18] = post-emergence, Postemergence, scale 0 to 100 (0 no effect, 100 complete control), read-out: Goosegrass plant response rating
[19] = pre-emergence, Preemergence, scale 0 to 100, 0 no effect, 100 complete control, read-out: Plant response rating, Goosegrass
[20] = pre-emergence, Preemergence, scale 0 to 100, read-out: Plant response rating, Goosegrass
[21] = post-emergence, Postemergence, scale 0 to 100 (0 no effect, 100 complete control), read-out: Foxtail, Giant plant response rating
[22] = pre-emergence, Preemergence, scale 0 to 100, 0 no effect, 100 complete control, read-out: Plant response rating, Foxtail, Giant
[23] = pre-emergence, Preemergence, scale 0 to 100, read-out: Plant response rating, Foxtail, Giant
[24] = post-emergence, Postemergence, 0 to 100 scale (0 no effect, 100 complete control)
[25] = pre-emergence, Preemergence, 0 to 100 scale where 0 is no effect and 100 is complete control, approximately ten days

Compound: CCOC(=O)c1nc(-c2ccc(Cl)cc2)nc(N)c1Cl [Compound 64, ethyl 6-amino-5-chloro-2-(4-chlorophenyl)-4-pyrimidinecarboxylate]
- pest or weed control at 31 g/ha ([1]; 31 g ai/ha, read-out: Plant response rating (scale of 0 to 100), Chickweed): 0%
- pest or weed control at 62 g/ha ([1]; 62 g ai/ha, scale 0 to 100 (0 no effect, 100 complete control), read-out: Chickweed plant response rating): 0%
- pest or weed control at 125 g/ha ([1]; 125 g ai/ha, scale 0 to 100 (0 no effect, 100 complete control), read-out: Chickweed plant response rating): 0%
- pest or weed control at 250 g/ha ([1]; 250 g ai/ha, scale 0 to 100, read-out: Plant response rating, Chickweed): 55%
- pest or weed control at 31 g/ha ([2]; post-emergence, Postemergence, read-out: Plant response rating (scale of 0 to 100), Lambsquarters): 80%
- pest or weed control at 62 g/ha [2, 12]: 90%
- pest or weed control at 125 g/ha [2, 12]: 90%
- pest or weed control at 250 g/ha ([2]; post-emergence, Postemergence, scale 0 to 100, read-out: Plant response rating, Lambsquarters): 90%
- pest or weed control at 31 g/ha [2, 13]: 70%
- pest or weed control at 62 g/ha [2, 13]: 95%
- pest or weed control at 125 g/ha [2, 14]: 95%
- pest or weed control at 250 g/ha [2, 14]: 100%
- pest or weed control at 31 g/ha ([3]; post-emergence, Postemergence, read-out: Plant response rating (scale of 0 to 100), Velvetleaf): 80%
- pest or weed control at 62 g/ha [3, 15]: 85%
- pest or weed control at 125 g/ha [3, 15]: 90%
- pest or weed control at 250 g/ha ([3]; post-emergence, Postemergence, scale 0 to 100, read-out: Plant response rating, Velvetleaf): 95%
- pest or weed control at 31 g/ha [3, 16]: 0%
- pest or weed control at 62 g/ha [3, 16]: 0%
- pest or weed control at 125 g/ha [3, 17]: 0%
- pest or weed control at 250 g/ha [3, 17]: 0%
- pest or weed control at 31 g/ha ([4]; post-emergence, Postemergence, read-out: Plant response rating (scale of 0 to 100), Goosegrass): 35%
- pest or weed control at 62 g/ha [4, 18]: 35%
- pest or weed control at 125 g/ha [4, 18]: 60%
- pest or weed control at 250 g/ha ([4]; post-emergence, Postemergence, scale 0 to 100, read-out: Plant response rating, Goosegrass): 70%
- pest or weed control at 31 g/ha [4, 19]: 0%
- pest or weed control at 62 g/ha [4, 19]: 0%
- pest or weed control at 125 g/ha [4, 20]: 0%
- pest or weed control at 250 g/ha [4, 20]: 75%
- pest or weed control at 125 g/ha [5, 21]: 50%
- pest or weed control at 31 g/ha ([5]; post-emergence, Postemergence, read-out: Plant response rating (scale of 0 to 100), Foxtail, Giant): 0%
- pest or weed control at 62 g/ha [5, 21]: 20%
- pest or weed control at 250 g/ha ([5]; post-emergence, Postemergence, scale 0 to 100, read-out: Plant response rating, Foxtail, Giant): 50%
- pest or weed control at 31 g/ha [5, 22]: 0%
- pest or weed control at 62 g/ha [5, 22]: 0%
- pest or weed control at 125 g/ha [5, 23]: 0%
- pest or weed control at 250 g/ha [5, 23]: 0%
- pest or weed control at 125 g/ha [6, 24]: 90%
- pest or weed control at 500 g/ha [6, 24]: 100%
- pest or weed control at 125 g/ha [6, 25]: 20%
- pest or weed control at 500 g/ha [6, 25]: 100%
- pest or weed control at 125 g/ha [7, 24]: 50%
- pest or weed control at 500 g/ha [7, 24]: 70%
- pest or weed control at 125 g/ha [7, 25]: 25%
- pest or weed control at 500 g/ha [7, 25]: 90%
- pest or weed control at 125 g/ha [8, 24]: 95%
- pest or weed control at 500 g/ha [8, 24]: 100%
- pest or weed control at 125 g/ha [8, 25]: 25%
- pest or weed control at 500 g/ha [8, 25]: 95%
- pest or weed control at 125 g/ha [9, 24]: 70%
- pest or weed control at 500 g/ha [9, 24]: 80%
- pest or weed control at 125 g/ha [9, 25]: 15%
- pest or weed control at 500 g/ha [9, 25]: 70%
- pest or weed control at 125 g/ha [10, 24]: 25%
- pest or weed control at 500 g/ha [10, 24]: 70%
- pest or weed control at 125 g/ha [10, 25]: 0%
- pest or weed control at 500 g/ha [10, 25]: 60%
- pest or weed control at 125 g/ha [11, 24]: 80%
- pest or weed control at 500 g/ha [11, 24]: 95%
- pest or weed control at 125 g/ha [11, 25]: 40%
- pest or weed control at 500 g/ha [11, 25]: 70%
